Consider 15 compounds from patent US20250145665A1, “MACROCYCLIC PEPTIDES USEFUL AS MODULATORS OF TNF ALPHA” (Bristol-Myers Squibb Company, priority 2023, published 2025).

Structures are written as SMILES. Positions of bridges follow the written chain, without caps; N, C: chain ends. Non-standard residues stand in square brackets, D forms with d. Residues, ends and D or L forms follow the SMILES beside them. Bip(4'-COOH) = N[C@@H](Cc1ccc(-c2ccc(C(=O)O)cc2)cc1)C(=O)O; Bip(4'-NHAc) = CC(=O)Nc1ccc(-c2ccc(C[C@H](N)C(=O)O)cc2)cc1; Ala(morpholin-4-yl) = N[C@@H](CN1CCOCC1)C(=O)O; Phe(3-CONH2) = NC(=O)c1cccc(C[C@H](N)C(=O)O)c1; Bip = N[C@@H](Cc1ccc(-c2ccccc2)cc1)C(=O)O; Ala(2-furyl) = N[C@@H](Cc1ccco1)C(=O)O; Abu(3S-NH2) = C[C@H](N)[C@H](N)C(=O)O; 2Pal = N[C@@H](Cc1ccccn1)C(=O)O; 2Thi = N[C@@H](Cc1cccs1)C(=O)O; Cha = N[C@@H](CC1CCCCC1)C(=O)O; Chg = N[C@H](C(=O)O)C1CCCCC1; Dab = NCC[C@H](N)C(=O)O; Sar = CNCC(=O)O

This assay deals with TNFα (Homo sapiens, UniProt P01375). Description: TNF-Induced HEK-Blue Assay. Particulars: HEK-Blue-CD40L cells, NF-kB-driven secreted alkaline phosphatase reporter; TNFα 0.5 ng/ml; 18 h; read-out: TNF induced HEK-Blue assay IC50 value. In kind it is cell-based.
Sequence of TNFα (P01375 77-233 limits assumed): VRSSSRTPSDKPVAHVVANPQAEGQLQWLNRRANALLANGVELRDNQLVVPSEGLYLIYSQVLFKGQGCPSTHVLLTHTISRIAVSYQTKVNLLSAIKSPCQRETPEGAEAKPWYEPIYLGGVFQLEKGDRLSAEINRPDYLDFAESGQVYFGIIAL
In general, IC50 refers to the concentration that inhibits the measured activity by half. Take `CC(=O)Nc1ccc(-c2ccc(C[C@@H]3NC(=O)[C@H](Cc4ccc(-c5ccc(C(=O)O)cc5)cc4)NC(=O)[C@H](CC4CCCCC4)NC(=O)CSC[C@@H](C(=O)NCC(N)=O)NC(=O)[C@H](CC(C)C)NC(=O)[C@H](Cc4cnc[nH]4)NC(=O)[C@H](C(C)C)NC(=O)[C@@H]4CCCN4C(=O)[C@H](C(C)C)NC(=O)[C@@H](CCCNC(=N)N)NC(=O)[C@H](CC(=O)O)NC(=O)[C@H](Cc4cnc[nH]4)NC(=O)CN(C)C3=O)cc2)cc1` [Example 234] ({CH2CO}-[Cha][Bip(4'-COOH)][Bip(4'-NHAc)][Sar]HD[dR]VPVHLCG-NH2; thioether N-13): the IC50 is less than 50 nM.
Under `CC(=O)Nc1ccc(-c2ccc(C[C@@H]3NC(=O)[C@H](Cc4ccc(-c5ccccc5)cc4)NC(=O)[C@H](CC4CCCCC4)NC(=O)CSC[C@@H](C(=O)NCC(N)=O)NC(=O)[C@H](CC(C)C)NC(=O)[C@H](Cc4cccs4)NC(=O)[C@H](C(C)C)NC(=O)[C@@H]4CCCN4C(=O)[C@H](C(C)C)NC(=O)[C@@H](CCCNC(=N)N)NC(=O)[C@H](CC(=O)O)NC(=O)[C@H](Cc4ccccn4)NC(=O)CN(C)C3=O)cc2)cc1` [Example 235] ({CH2CO}-[Cha][Bip][Bip(4'-NHAc)][Sar][2Pal]D[dR]VPV[2Thi]LCG-NH2; thioether N-13) stands 200 to 2000 nM; under `CC(=O)Nc1ccc(-c2ccc(C[C@@H]3NC(=O)[C@H](Cc4ccc(-c5ccc(C(=O)O)cc5)cc4)NC(=O)[C@H](CN4CCOCC4)NC(=O)CSC[C@@H](C(=O)NCC(N)=O)NC(=O)[C@H](CC(C)C)NC(=O)[C@H](Cc4ccc(O)cc4)NC(=O)[C@H](C(C)C)NC(=O)[C@@H]4CCCN4C(=O)[C@H](C(C)C)NC(=O)[C@@H](CCCNC(=N)N)NC(=O)[C@H](CC(=O)O)NC(=O)[C@@H]4CCCN4C(=O)CN(C)C3=O)cc2)cc1` [Example 236] ({CH2CO}-[Ala(morpholin-4-yl)][Bip(4'-COOH)][Bip(4'-NHAc)][Sar]PD[dR]VPVYLCG-NH2; thioether N-13), 200 to 2000 nM.
For `CC(=O)Nc1ccc(-c2ccc(C[C@@H]3NC(=O)[C@H](Cc4ccc(-c5ccc(C(=O)O)cc5)cc4)NC(=O)[C@H](CN4CCOCC4)NC(=O)CSC[C@@H](C(=O)NCC(N)=O)NC(=O)[C@H](CC(C)C)NC(=O)[C@H](Cc4ccc(O)cc4)NC(=O)[C@H](C4CCCCC4)NC(=O)[C@@H]4CCCN4C(=O)[C@H](C(C)C)NC(=O)[C@@H](CCCNC(=N)N)NC(=O)[C@H](CC(=O)O)NC(=O)[C@@H]4CCCN4C(=O)CN(C)C3=O)cc2)cc1` [Example 237] ({CH2CO}-[Ala(morpholin-4-yl)][Bip(4'-COOH)][Bip(4'-NHAc)][Sar]PD[dR]VP[Chg]YLCG-NH2; thioether N-13) the value was 50 to 200 nM; for `CC[C@H](C)[C@@H]1NC(=O)[C@@H](CCCNC(=N)N)NC(=O)[C@H](CC(=O)O)NC(=O)[C@H](Cc2cnc[nH]2)NC(=O)CN(C)C(=O)[C@H](Cc2ccc(-c3ccc(NC(C)=O)cc3)cc2)NC(=O)[C@H](Cc2ccc(-c3ccccc3)cc2)NC(=O)[C@H](CN2CCOCC2)NC(=O)CSC[C@@H](C(=O)NCC(N)=O)NC(=O)[C@H](CC(C)C)NC(=O)[C@H](Cc2cnc[nH]2)NC(=O)[C@H](C(C)C)NC(=O)[C@@H]2CCCN2C1=O` [Example 238] ({CH2CO}-[Ala(morpholin-4-yl)][Bip][Bip(4'-NHAc)][Sar]HD[dR]IPVHLCG-NH2; thioether N-13), less than 50 nM; for `CC(=O)Nc1ccc(-c2ccc(C[C@@H]3NC(=O)[C@H](Cc4ccc(-c5ccccc5)cc4)NC(=O)[C@H](CC4CCCCC4)NC(=O)CSC[C@@H](C(=O)NCC(N)=O)NC(=O)[C@H](CC(C)C)NC(=O)[C@H](Cc4ccc(O)cc4)NC(=O)[C@H](C(C)C)NC(=O)[C@@H]4CCCN4C(=O)[C@H]([C@H](C)N)NC(=O)[C@@H](CCCNC(=N)N)NC(=O)[C@H](CC(=O)O)NC(=O)[C@@H]4CCCN4C(=O)CN(C)C3=O)cc2)cc1` [Example 239] ({CH2CO}-[Cha][Bip][Bip(4'-NHAc)][Sar]PD[dR][Abu(3S-NH2)]PVYLCG-NH2; thioether N-13), 50 to 200 nM.
Under `CC(=O)Nc1ccc(-c2ccc(C[C@@H]3NC(=O)[C@H](Cc4ccc(-c5ccccc5)cc4)NC(=O)[C@H](CC4CCCCC4)NC(=O)CSC[C@@H](C(=O)NCC(N)=O)NC(=O)[C@H](CC(C)C)NC(=O)[C@H](Cc4cccc(C(N)=O)c4)NC(=O)[C@H](C(C)C)NC(=O)[C@@H]4CCCN4C(=O)[C@H](C(C)C)NC(=O)[C@@H](CCCNC(=N)N)NC(=O)[C@H](CC(=O)O)NC(=O)[C@@H]4CCCN4C(=O)CN(C)C3=O)cc2)cc1` [Example 240] ({CH2CO}-[Cha][Bip][Bip(4'-NHAc)][Sar]PD[dR]VPV[Phe(3-CONH2)]LCG-NH2; thioether N-13) stands 50 to 200 nM.
For `CC(=O)Nc1ccc(-c2ccc(C[C@@H]3NC(=O)[C@H](Cc4ccc(-c5ccc(C(=O)O)cc5)cc4)NC(=O)[C@H](CC4CCCCC4)NC(=O)CSC[C@@H](C(=O)N[C@@H](CCN)C(N)=O)NC(=O)[C@H](CC(C)C)NC(=O)[C@H](Cc4ccc(O)cc4)NC(=O)[C@H](C(C)C)NC(=O)[C@@H]4CCCN4C(=O)[C@H](C(C)C)NC(=O)[C@@H](CCCNC(=N)N)NC(=O)[C@H](CC(=O)O)NC(=O)[C@@H]4CCCN4C(=O)CN(C)C3=O)cc2)cc1` [Example 243] ({CH2CO}-[Cha][Bip(4'-COOH)][Bip(4'-NHAc)][Sar]PD[dR]VPVYLC[Dab]-NH2; thioether N-13), the IC50 was 50 to 200 nM.
Under `CC(=O)Nc1ccc(-c2ccc(C[C@@H]3NC(=O)[C@H](Cc4ccc(-c5ccc(C(=O)O)cc5)cc4)NC(=O)[C@H](CC4CCCCC4)NC(=O)CSC[C@@H](C(=O)N[C@@H](CCC(N)=O)C(N)=O)NC(=O)[C@H](CC(C)C)NC(=O)[C@H](Cc4ccc(O)cc4)NC(=O)[C@H](C(C)C)NC(=O)[C@@H]4CCCN4C(=O)[C@H](C(C)C)NC(=O)[C@@H](CCCNC(=N)N)NC(=O)[C@H](CC(=O)O)NC(=O)[C@@H]4CCCN4C(=O)CN(C)C3=O)cc2)cc1` [Example 244] ({CH2CO}-[Cha][Bip(4'-COOH)][Bip(4'-NHAc)][Sar]PD[dR]VPVYLCQ-NH2; thioether N-13) stands 200 to 2000 nM.
Under `CC(=O)Nc1ccc(-c2ccc(C[C@@H]3NC(=O)[C@H](Cc4ccc(-c5ccc(C(=O)O)cc5)cc4)NC(=O)[C@H](CC4CCCCC4)NC(=O)CSC[C@@H](C(=O)NCC(N)=O)NC(=O)[C@H](CC(C)C)NC(=O)[C@H](Cc4cccs4)NC(=O)[C@H](C(C)C)NC(=O)[C@@H]4CCCN4C(=O)[C@H](C(C)C)NC(=O)[C@@H](CCCNC(=N)N)NC(=O)[C@H](CC(=O)O)NC(=O)[C@@H]4CCCN4C(=O)CN(C)C3=O)cc2)cc1` [Example 245] ({CH2CO}-[Cha][Bip(4'-COOH)][Bip(4'-NHAc)][Sar]PD[dR]VPV[2Thi]LCG-NH2; thioether N-13) stands 200 to 2000 nM; under `CC(=O)Nc1ccc(-c2ccc(C[C@@H]3NC(=O)[C@H](Cc4ccc(-c5ccc(C(=O)O)cc5)cc4)NC(=O)[C@H](CC4CCCCC4)NC(=O)CSC[C@@H](C(=O)NCC(N)=O)NC(=O)[C@H](CC(C)C)NC(=O)[C@H](Cc4ccco4)NC(=O)[C@H](C(C)C)NC(=O)[C@@H]4CCCN4C(=O)[C@H](C(C)C)NC(=O)[C@@H](CCCNC(=N)N)NC(=O)[C@H](CC(=O)O)NC(=O)[C@@H]4CCCN4C(=O)CN(C)C3=O)cc2)cc1` [Example 246] ({CH2CO}-[Cha][Bip(4'-COOH)][Bip(4'-NHAc)][Sar]PD[dR]VPV[Ala(2-furyl)]LCG-NH2; thioether N-13), 50 to 200 nM.
In the case of `CC(=O)Nc1ccc(-c2ccc(C[C@@H]3NC(=O)[C@H](Cc4ccc(-c5ccc(C(=O)O)cc5)cc4)NC(=O)[C@H](CC4CCCCC4)NC(=O)CSC[C@@H](C(=O)NCC(N)=O)NC(=O)[C@H](CC(C)C)NC(=O)[C@H](Cc4ccc(O)cc4)NC(=O)[C@H](C(C)C)NC(=O)[C@@H]4CCCN4C(=O)[C@H](CC(N)=O)NC(=O)[C@@H](CCCNC(=N)N)NC(=O)[C@H](CC(=O)O)NC(=O)[C@@H]4CCCN4C(=O)CN(C)C3=O)cc2)cc1` [Example 247] ({CH2CO}-[Cha][Bip(4'-COOH)][Bip(4'-NHAc)][Sar]PD[dR]NPVYLCG-NH2; thioether N-13), the IC50 lay in the range of 50 to 200 nM.
Under `CC(=O)Nc1ccc(-c2ccc(C[C@@H]3NC(=O)[C@H](Cc4ccc(-c5ccc(C(=O)O)cc5)cc4)NC(=O)[C@H](CC4CCCCC4)NC(=O)CSC[C@@H](C(=O)NCC(N)=O)NC(=O)[C@H](CC(C)C)NC(=O)[C@H](Cc4cnc[nH]4)NC(=O)[C@H](C(C)C)NC(=O)[C@@H]4CCCN4C(=O)[C@H](CC(N)=O)NC(=O)[C@@H](CCCNC(=N)N)NC(=O)[C@H](CC(=O)O)NC(=O)[C@H](Cc4ccc(O)cc4)NC(=O)CN(C)C3=O)cc2)cc1` [Example 248] ({CH2CO}-[Cha][Bip(4'-COOH)][Bip(4'-NHAc)][Sar]YD[dR]NPVHLCG-NH2; thioether N-13) stands 50 to 200 nM; under `CC(=O)Nc1ccc(-c2ccc(C[C@@H]3NC(=O)[C@H](Cc4ccc(-c5ccccc5)cc4)NC(=O)[C@H](CC4CCCCC4)NC(=O)CSC[C@@H](C(=O)N[C@@H](CCC(=O)O)C(N)=O)NC(=O)[C@H](CC(C)C)NC(=O)[C@H](Cc4cnc[nH]4)NC(=O)[C@H](C(C)C)NC(=O)[C@@H]4CCCN4C(=O)[C@H](C(C)C)NC(=O)[C@@H](CCCNC(=N)N)NC(=O)[C@H](CC(=O)O)NC(=O)[C@H](Cc4ccc(O)cc4)NC(=O)CN(C)C3=O)cc2)cc1` [Example 249] ({CH2CO}-[Cha][Bip][Bip(4'-NHAc)][Sar]YD[dR]VPVHLCE-NH2; thioether N-13), 50 to 200 nM; under `CC(=O)Nc1ccc(-c2ccc(C[C@@H]3NC(=O)[C@H](Cc4ccc(-c5ccc(C(=O)O)cc5)cc4)NC(=O)[C@H](CC4CCCCC4)NC(=O)CSC[C@@H](C(=O)NCC(N)=O)NC(=O)[C@H](CC(C)C)NC(=O)[C@H](Cc4cccc(C(N)=O)c4)NC(=O)[C@H](C(C)C)NC(=O)[C@@H]4CCCN4C(=O)[C@H](C(C)C)NC(=O)[C@@H](CCCNC(=N)N)NC(=O)[C@H](CC(=O)O)NC(=O)[C@H](Cc4ccccn4)NC(=O)CN(C)C3=O)cc2)cc1` [Example 251] ({CH2CO}-[Cha][Bip(4'-COOH)][Bip(4'-NHAc)][Sar][2Pal]D[dR]VPV[Phe(3-CONH2)]LCG-NH2; thioether N-13), less than 50 nM.
